Common to all, as to assay: NCI-60 cell line screen, 48 h
Test [1] concerns MDA-MB-231.
Test [2] concerns NCI-H460.
For test [3], the system named is BT-549.
Test [4] deals with A549.
In test [5] the test system is CAKI-1.
Test [6] concerns MOLT-4.
Test [7] relates to NCI/ADR-RES.
Test [8] concerns HCT-15.
The test system of test [9] is SF-295.
Test [10] relates to COLO 205.
For test [11], the system named is NCI-H522.
Test [12] relates to OVCAR-4.
For test [13], the system named is NCI-H226.
The test system of test [14] is MDA-N.
The test system of test [15] is NCI-H23.
For test [16], the system named is UACC-257.
The test system of test [17] is SNB-19.
The test system of test [18] is UACC-62.
For test [19], the system named is OVCAR-8.
Test [20] concerns SNB-75.

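Briefly, cells in 96-well plates were exposed to five compound concentrations for 48 h, and endpoints were estimated by linear interpolation. The concentration for 50% growth inhibition is given as GI50.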 Activity calls are given as the source filed them. Rule as the data show it: active = GI50 up to about 1.1 µM and inactive = higher.

Consider `OCC1CCCCN1Cc1nc2cc(Cl)ccc2[nH]1` (stereo not given), for which the GI50 in test [1], in test [2], in test [3], in [4], in test [5] and in [6] was > 100 µM (inactive) each time. Also, the GI50 in [7] is > 100 µM (inactive); in [8] it was above 100 µM; in test [9], > 100 µM (inactive); in [10], > 100 µM (inactive); in test [11] it was > 100 µM (inactive); in test [12], > 100 µM (inactive). Further, the GI50 in [13] is 95.5 µM (inactive); in [14] it was > 100 µM (inactive); in test [15], > 100 µM (inactive); in [16] it was > 100 µM (inactive); in test [17] it was > 100 µM (inactive); in test [18], > 100 µM (inactive). The GI50 in test [19] and in test [20] was > 100 µM (inactive) each time.

Take `COC(=O)c1cc(=O)n(-c2ccc3nn(C)nc3c2)cc1C(=O)OC`: the GI50 in [1], in [2], in test [3], in [4], in test [5] and in [6] was > 100 µM (inactive) each time. The GI50 in test [7] is > 100 µM (inactive); in test [8], above 100 µM; in test [9] it was > 100 µM (inactive); in [10], > 100 µM (inactive); in [11] it was > 100 µM (inactive); in [12], > 100 µM (inactive). The GI50 in [13], in test [14], in test [15], in [16], in test [17] and in test [18] was > 100 µM (inactive) each time. In addition, the GI50 in [19] and in [20] was > 100 µM (inactive) throughout.

For `O=C1/C(=C/c2cccc(Cl)c2)CCCc2ccccc21`, the GI50 was 18.2 µM (inactive) in test [1]; 15.7 µM (inactive) in test [2]; 19.7 µM (inactive) in test [3]; 26.5 µM (inactive) in test [4]; 24.1 µM (inactive) in [5]; 15.2 µM (inactive) in test [6]. Further, the GI50 in test [7] is 18.4 µM (inactive); in [8] it was 17.2 µM; in [9] it was 17.5 µM (inactive); in [10], 20.5 µM (inactive); in test [11], 14.5 µM (inactive); in test [12] it was 15.8 µM (inactive). The GI50 was 16.1 µM (inactive) in test [13]; 16.9 µM (inactive) in test [14]; 16.1 µM (inactive) in [15]; 19.1 µM (inactive) in test [16]; 14.9 µM (inactive) in [17]; 13.7 µM (inactive) in test [18]. Moreover, the GI50 in test [19] was 18.3 µM (inactive); in [20], 15.6 µM (inactive).

As to `O=c1c2ccccc2n2nnc3ccc(NCCNCCO)c1c32`, the GI50 in test [1] is 2.85 µM (inactive); in test [2] it was 0.679 µM (active); in test [3] it was 2.02 µM (inactive); in [4], 1.16 µM (inactive); in test [5] it was 1.84 µM (inactive); in test [6], 0.361 µM (active). Also, the GI50 in test [7] was 1.08 µM (active); in [8], 2.03 µM; in [9], 2.06 µM (inactive); in [10], 0.946 µM (active); in test [11], 1.82 µM (inactive); in [12], 1.71 µM (inactive). Moreover, the GI50 was 2.29 µM (inactive) in test [13]; 1.69 µM (inactive) in [14]; 2.31 µM (inactive) in test [15]; 3.32 µM (inactive) in test [16]; 3.05 µM (inactive) in [17]; 2.42 µM (inactive) in test [18]. Moreover, the GI50 in test [19] is 0.908 µM (active); in test [20], 1.42 µM (inactive).

Values taken from ChEMBL document CHEMBL1201862, “PubChem BioAssay data set” (2004).
